Laboratory results as given in ChEMBL document CHEMBL4382224, “Synthesis and evaluation of potent and selective MGL inhibitors as a glaucoma treatment” (Bioorg Med Chem, 2019).
Calls of active or inactive are those of the source. The rule behind the calls is not given here.

How the values were obtained:
[1] = biological target: T1, Fatty-acid amide hydrolase 1 (Rattus norvegicus, UniProt P97612); test: Inhibition of rat FAAH using AAMCA as substrate by fluorescence assay
T1 sequence (P97612 whole entry): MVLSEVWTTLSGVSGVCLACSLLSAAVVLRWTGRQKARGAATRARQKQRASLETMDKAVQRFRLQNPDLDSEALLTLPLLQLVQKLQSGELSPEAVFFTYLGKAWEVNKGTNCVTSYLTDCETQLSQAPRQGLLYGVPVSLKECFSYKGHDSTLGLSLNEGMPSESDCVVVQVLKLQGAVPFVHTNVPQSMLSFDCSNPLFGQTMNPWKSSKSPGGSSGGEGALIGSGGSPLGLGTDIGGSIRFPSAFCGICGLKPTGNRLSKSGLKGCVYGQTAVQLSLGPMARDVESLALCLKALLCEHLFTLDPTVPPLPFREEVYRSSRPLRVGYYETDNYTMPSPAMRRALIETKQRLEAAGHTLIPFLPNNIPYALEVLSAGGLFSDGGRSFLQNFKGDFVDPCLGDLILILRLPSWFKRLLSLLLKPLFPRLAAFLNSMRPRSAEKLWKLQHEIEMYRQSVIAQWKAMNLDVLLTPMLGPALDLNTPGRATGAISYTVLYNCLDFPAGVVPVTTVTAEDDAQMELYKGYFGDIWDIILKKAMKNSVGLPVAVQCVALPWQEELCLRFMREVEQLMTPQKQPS

[2] = biological target: Cannabinoid receptor 1 (Rattus norvegicus, UniProt P20272); test: Displacement of [3H]CP-55,940 from rat CB1 receptor at >1 uM after 1 hr by scintillation counting method
[3] = biological target: Cannabinoid receptor 2 (Homo sapiens) (UniProt P34972); test: Displacement of [3H]CP-55,940 from recombinant human CB2 receptor expressed in HEK293 cells at >1 uM after 1 hr by scintillation counting method; format: cell-based
[4] = biological target: Cannabinoid receptor 2 (Mus musculus) (UniProt P47936); test: Displacement of [3H]CP-55,940 from recombinant mouse CB2 receptor expressed in HEK293 cells at >1 uM after 1 hr by scintillation counting method; format: cell-based
[5] = biological target: T2, Monoacylglycerol lipase ABHD6 (Homo sapiens) (UniProt Q9BV23); test: Inhibition of human ABHD6 at >10 uM
T2 sequence (whole entry): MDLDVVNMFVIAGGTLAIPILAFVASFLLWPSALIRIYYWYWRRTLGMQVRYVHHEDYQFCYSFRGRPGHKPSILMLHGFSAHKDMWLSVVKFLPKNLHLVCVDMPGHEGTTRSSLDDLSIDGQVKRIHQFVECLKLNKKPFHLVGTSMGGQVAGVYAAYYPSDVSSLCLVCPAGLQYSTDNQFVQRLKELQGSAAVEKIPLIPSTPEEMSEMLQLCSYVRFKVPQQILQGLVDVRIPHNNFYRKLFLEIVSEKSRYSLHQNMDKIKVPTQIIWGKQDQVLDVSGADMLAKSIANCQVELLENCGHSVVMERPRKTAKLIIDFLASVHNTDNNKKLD

[6] = Half life in human plasma at 200 uM by HPLC analysis; format: ADME, cell-free
[7] = Half life in mouse liver microsomes pretreated with compounds followed by NADPH addition by LC-MS/MS analysis; format: ADME, Microsome
[8] = Half life in rat liver microsomes pretreated with compounds followed by NADPH addition by LC-MS/MS analysis; format: ADME, Microsome
[9] = Half life in human liver microsomes pretreated with compounds followed by NADPH addition by LC-MS/MS analysis; format: ADME, Microsome
[10] = Half life in rat plasma at 200 uM by HPLC analysis; format: ADME, cell-free
[11] = tested on: Mus musculus; test: Anti-glaucoma activity in normotensive C57BL/6J mouse assessed as intraocular pressure at 3 mM administered as single topical treatment measured after 28 hrs by tonometry (reference value: […] +/- 1.1 mmHg); format: functional
[12] = Half life in mouse plasma at 200 uM by HPLC analysis; format: ADME, cell-free
[13] = Mean residence time in CD1 mouse at 2 mg/kg, iv or 10 mg/kg, po; format: ADME, organism-based; settings: in vivo
[14] = Oral bioavailability in CD1 mouse at 10 mg/kg; format: ADME, organism-based; settings: in vivo
[15] = Drug uptake in CD1 mouse brain at 2 mg/kg, iv or 10 mg/kg, po; format: ADME, organism-based; settings: in vivo

Chain of Cannabinoid receptor 2 (Homo sapiens) (P34972 whole entry): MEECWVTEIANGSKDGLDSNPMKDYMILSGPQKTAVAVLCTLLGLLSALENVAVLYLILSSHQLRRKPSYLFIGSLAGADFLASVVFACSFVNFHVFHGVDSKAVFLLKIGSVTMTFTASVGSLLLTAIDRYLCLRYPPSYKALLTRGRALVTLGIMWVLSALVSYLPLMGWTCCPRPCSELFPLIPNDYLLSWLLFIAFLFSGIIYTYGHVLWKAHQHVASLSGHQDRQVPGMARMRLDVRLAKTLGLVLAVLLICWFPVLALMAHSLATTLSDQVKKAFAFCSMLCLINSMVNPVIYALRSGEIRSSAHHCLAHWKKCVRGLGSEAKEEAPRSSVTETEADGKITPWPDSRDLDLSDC
Chain of Cannabinoid receptor 1 (P20272 whole entry): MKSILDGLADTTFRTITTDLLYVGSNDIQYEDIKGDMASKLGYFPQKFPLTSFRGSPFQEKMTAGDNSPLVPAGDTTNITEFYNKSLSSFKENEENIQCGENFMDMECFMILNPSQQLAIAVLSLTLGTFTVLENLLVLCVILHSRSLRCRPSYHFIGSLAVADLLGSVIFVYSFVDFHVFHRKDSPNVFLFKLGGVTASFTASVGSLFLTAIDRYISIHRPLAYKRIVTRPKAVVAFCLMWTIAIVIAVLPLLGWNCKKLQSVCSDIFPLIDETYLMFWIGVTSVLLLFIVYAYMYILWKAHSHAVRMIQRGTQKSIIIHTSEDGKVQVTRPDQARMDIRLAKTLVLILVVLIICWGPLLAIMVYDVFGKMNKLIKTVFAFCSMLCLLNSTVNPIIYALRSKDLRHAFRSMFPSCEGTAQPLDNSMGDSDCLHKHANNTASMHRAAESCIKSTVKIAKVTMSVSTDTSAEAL
Chain of Cannabinoid receptor 2 (Mus musculus) (P47936 whole entry): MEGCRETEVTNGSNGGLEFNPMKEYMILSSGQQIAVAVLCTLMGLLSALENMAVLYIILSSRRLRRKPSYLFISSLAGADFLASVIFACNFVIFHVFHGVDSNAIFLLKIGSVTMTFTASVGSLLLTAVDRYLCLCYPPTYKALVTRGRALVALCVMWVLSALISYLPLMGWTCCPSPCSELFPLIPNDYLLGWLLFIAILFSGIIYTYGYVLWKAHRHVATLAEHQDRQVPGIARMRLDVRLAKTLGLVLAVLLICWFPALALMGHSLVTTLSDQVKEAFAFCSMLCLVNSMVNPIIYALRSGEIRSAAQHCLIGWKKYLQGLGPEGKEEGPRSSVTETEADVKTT

Compound	IC50 [1] [nM]	Activity [2]	Activity [3]	Activity [4]	inhibition [5]	t1/2 [6] [h]	t1/2 [7] [h]	t1/2 [8] [h]	t1/2 [9] [h]	t1/2 [10] [h]	Activity [11] [mmHg]	t1/2 [12] [h]	MRT [13] [h]	bioavailability [14] [%]	Drug uptake [15] [%]
COc1cc(C#N)cc(OC(=O)N2CCC(C(c3ccccc3)c3ccccc3)CC2)c1	> 1000	Not Active	inactive	inactive	inactive	–	–	–	–	–	–	–	–	–	–
CC(C)N1CCN(C(=O)Oc2cccc(C#N)c2)CC1	68	Not Active	inactive	inactive	inactive	–	–	–	–	–	–	–	–	–	–
N#Cc1ccnc(OC(=O)N2CCC(C(c3ccccc3)c3ccccc3)CC2)c1	> 1000	Not Active	inactive	inactive	inactive	–	–	–	–	–	–	–	–	–	–
N#Cc1cccc(OC(=O)N2CCC(C(c3ccccc3)c3ccccc3)CC2)c1	> 1000	Not Active	inactive	inactive	inactive	> 2	0.333	0.717	2.03	> 2	19.9	> 2	6	15	65
N#Cc1cccc(OC(=O)N2CCN(C3CCCCC3)CC2)c1	67	Not Active	inactive	inactive	inactive	–	–	–	–	–	–	–	–	–	–
N#Cc1cccc(OC(=O)N2CCN(C(c3ccccc3)c3ccccc3)CC2)c1	> 1000	Not Active	inactive	inactive	inactive	–	–	–	–	–	–	–	–	–	–
N#Cc1cccc(OC(=O)N2CCC(C(c3ccccc3)c3ccccc3)CC2)n1	> 1000	Not Active	inactive	inactive	inactive	–	–	–	–	–	–	–	–	–	–
N#Cc1cccc(OC(=O)N2CCC(OC(c3ccccc3)c3ccccc3)CC2)c1	> 1000	Not Active	inactive	inactive	inactive	–	–	–	–	–	–	–	–	–	–
N#Cc1cc(O)cc(OC(=O)N2CCC(C(c3ccccc3)c3ccccc3)CC2)c1	> 1000	Not Active	inactive	inactive	inactive	–	–	–	–	–	–	–	–	–	–
N#Cc1cccc(OC(=O)N2CCC(C(c3ccc(Cl)cc3)c3ccc(Cl)cc3)CC2)c1	> 1000	Not Active	inactive	inactive	inactive	–	–	–	–	–	–	–	–	–	–
O=C(Oc1ccccc1)N1CCN(C(c2ccccc2)c2ccccc2)CC1	–	Not Active	inactive	inactive	inactive	–	–	–	–	–	–	–	–	–	–
N#Cc1cccc(OC(=O)N2CCN(C3CC3)CC2)c1	63	Not Active	inactive	inactive	inactive	–	–	–	–	–	–	–	–	–	–
N#Cc1cc(F)cc(OC(=O)N2CCC(C(c3ccccc3)c3ccccc3)CC2)c1	> 1000	Not Active	inactive	inactive	inactive	–	–	–	–	–	–	–	–	–	–
N#Cc1cccc(OC(=O)N2CCC(S(=O)(=O)C(c3ccccc3)c3ccccc3)CC2)c1	–	Not Active	inactive	inactive	inactive	–	–	–	–	–	–	–	–	–	–
N#Cc1cccc(OC(=O)N2CCN(C(c3ccc(F)cc3)c3ccc(F)cc3)CC2)c1	> 1000	Not Active	inactive	inactive	inactive	–	–	–	–	–	–	–	–	–	–
N#Cc1cccc(OC(=O)N2CCN(C(c3ccccc3)c3cccnc3)CC2)c1 (stereo not drawn)	> 1000	Not Active	inactive	inactive	inactive	–	–	–	–	–	–	–	–	–	–
N#Cc1ccc(F)c(OC(=O)N2CCC(C(c3ccccc3)c3ccccc3)CC2)c1	> 1000	Not Active	inactive	inactive	inactive	–	–	–	–	–	–	–	–	–	–
N#Cc1cccc(OC(=O)N2CCC(NC(c3ccccc3)c3ccccc3)CC2)c1	> 1000	Not Active	inactive	inactive	inactive	–	–	–	–	–	–	–	–	–	–
N#Cc1cccc(OC(=O)N2CCN(C3c4ccccc4-c4ccccc43)CC2)c1	> 1000	Not Active	inactive	inactive	inactive	–	–	–	–	–	–	–	–	–	–
Cc1cc(C#N)cc(OC(=O)N2CCC(C(c3ccccc3)c3ccccc3)CC2)c1	> 1000	Not Active	inactive	inactive	inactive	–	–	–	–	–	–	–	–	–	–
